Consider 27 molecules from patent US20070249670A1, “Glycogen Phosphorylase Inhibitor Compounds and Pharmaceutical Compositions Thereof” (SMITHKLINE BEECHAM CORPORATION, priority 2004, published 2007).

Usually IC50 stands for the concentration that inhibits the measured activity by half. Read a low IC50 as higher potency.

Each structure is given as a SMILES string. Counter-ions that a name gives are not always drawn.

The target in the assay is T1, human liver glycogen phosphorylase a (HLGPa) (Homo sapiens, UniProt P06737).
T1 construct: creating a full-length cDNA fused at the 5′ end to codons for methionine-glycine-alanine-histidine; 6xHis tag (leader Met-Gly-Ala-His6-Gly-Gly) (N); made in house; host or cells: E. coli (bacterial expression plasmid pTXK1007LTev)
T1 sequence (P06737 2-847 limits assumed): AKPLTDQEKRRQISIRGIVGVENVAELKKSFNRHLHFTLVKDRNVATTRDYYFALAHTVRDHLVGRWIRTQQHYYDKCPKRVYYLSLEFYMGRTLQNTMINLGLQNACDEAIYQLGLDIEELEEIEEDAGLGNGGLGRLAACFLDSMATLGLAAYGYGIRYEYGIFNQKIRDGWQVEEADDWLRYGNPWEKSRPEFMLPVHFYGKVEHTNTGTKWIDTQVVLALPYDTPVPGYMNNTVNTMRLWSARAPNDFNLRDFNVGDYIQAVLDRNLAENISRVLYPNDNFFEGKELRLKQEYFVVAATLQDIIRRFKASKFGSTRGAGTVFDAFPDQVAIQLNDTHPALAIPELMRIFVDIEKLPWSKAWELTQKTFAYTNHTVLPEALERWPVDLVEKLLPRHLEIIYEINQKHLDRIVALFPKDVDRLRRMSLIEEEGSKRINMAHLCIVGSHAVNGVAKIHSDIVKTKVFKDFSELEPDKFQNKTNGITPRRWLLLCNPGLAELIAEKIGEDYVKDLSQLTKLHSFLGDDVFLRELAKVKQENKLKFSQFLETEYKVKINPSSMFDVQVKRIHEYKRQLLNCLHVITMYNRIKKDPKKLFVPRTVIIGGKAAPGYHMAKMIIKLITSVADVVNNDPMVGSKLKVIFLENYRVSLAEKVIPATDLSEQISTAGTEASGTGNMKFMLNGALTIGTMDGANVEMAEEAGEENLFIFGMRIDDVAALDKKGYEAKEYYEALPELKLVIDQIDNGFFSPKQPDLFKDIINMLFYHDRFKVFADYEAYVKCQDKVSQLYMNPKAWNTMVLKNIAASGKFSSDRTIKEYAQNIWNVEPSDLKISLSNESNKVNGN
The assay is described as follows: Human liver glycogen phosphorylase a enzymatic activity assay (coupled, fluorescent resorufin readout, with and without 10 mM glucose). Format: biochemical.

[1] abbreviates: human liver glycogen phosphorylase a enzymatic activity assay.
Where [2] appears, read: human liver glycogen phosphorylase a, table does not say whether with or without 10 mM glucose.

Under setting [1], `Cc1cccc(C)c1NC(=O)Nc1cc(-c2ccc(F)c(F)c2)ccc1C(=O)N[C@H](C(=O)O)C1CCCCC1` [Example 188, (2S)-Cyclohexyl({[3-({[(2,6-dimethylphenyl)amino]carbonyl}amino)-3′,4′-difluoro-4-biphenylyl]carbonyl}amino)ethanoic acid] had an IC50 of 74 nM. Consider `Cc1cccc(C)c1NC(=O)Nc1sc2c(c1C(=O)N[C@H](C(=O)O)C(C)C)CCCC2` [Example 3, N-{[2-({[(2,6-dimethylphenyl)amino]carbonyl}amino)-4,5,6,7-tetrahydro-1-benzothien-3-yl]carbonyl}-L-valine], for which the concentration for half-maximal inhibition (IC50) under setting [1] was 32200 nM. In the case of `CCOC(=O)C[C@H](NC(=O)c1ccc(-c2ccc(OC)cc2)cc1NC(=O)Nc1c(C)cc(C)cc1C)C(=O)O` [Example 367, (2S)-4-(ethyloxy)-2-({[4′-(methyloxy)-3-({[(2,4,6-trimethylphenyl)amino]carbonyl}amino)-4-biphenylyl]carbonyl}amino)-4-oxobutanoic acid], it took 640 nM to reach half-maximal inhibition under setting [2] (IC50). Consider `O=C(Nc1cc(-c2ccncc2)sc1C(=O)O)Nc1c(Cl)cccc1Cl` [Example 400, 3-({[(2,6-dichlorophenyl)amino]carbonyl}amino)-5-(4-pyridinyl)-2-thiophenecarboxylic acid], for which inhibition under setting [1] was half-maximal at 1830 nM (IC50). For the molecule `Cc1cccc(Cl)c1NC(=O)Nc1cc2ccccc2cc1C(=O)N[C@@H](CC1CCCCC1)C(=O)O` [Example 122, N-[3-({[(2-chloro-6-methylphenyl)amino]carbonyl}amino)-2-naphthoyl]-3-cyclohexyl-L-alanine], the midpoint of inhibition under setting [1], the IC50, lay at 2230 nM. Consider `Cc1cc(C(=O)N[C@H](C(=O)O)C2CCCCC2)c(NC(=O)Nc2c(Cl)cccc2Cl)s1` [Example 390, (2S)-cyclohexyl({f[2-({[(2,6-dichlorophenyl)amino]carbonyl}amino)-5-methyl-3-thienyl]carbonyl}amino)ethanoic acid], for which the concentration for half-maximal inhibition (IC50) under setting [2] was determined as 17500 nM. In turn, `Cc1cccc(Cl)c1NC(=O)Nc1cc2ccccc2cc1C(=O)N[C@@H](CC(=O)O)C(=O)O` [Example 84, N-[3-({[(2-chloro-6-methylphenyl)amino]carbonyl}amino)-2-naphthoyl]-L-aspartic acid] gave an IC50 under setting [1] of 390 nM. Still for that read-out and setting: then `Cc1cccc(Cl)c1NC(=O)Nc1cc2ccccc2cc1C(=O)N[C@@H](Cc1cnc[nH]1)C(=O)O` [Example 61, N-[3-({[(2-chloro-6-methylphenyl)amino]carbonyl}amino)-2-naphthoyl]-L-histidine trifluoroacetate], with 450 nM. In the case of `Cc1cc(C)c(NC(=O)Nc2cc3ccccc3cc2C(=O)N[C@H](C(=O)O)[C@H]2CCCC(OC(=O)C(F)(F)F)C2)c(C)c1` (stereo partly drawn) [Example 360, (2S)-{(1S)-3-[(trifluoroacetyl)oxy]cyclohexyl}({[3-({[(2,4,6-trimethylphenyl)amino]carbonyl}amino)-2-naphthalenyl]carbonyl}amino)ethanoic acid], the concentration for half-maximal inhibition (IC50) under setting [2] was found to be 11 nM. The molecule `O=C(Nc1ccccc1Cl)Nc1cc2ccccc2cc1C(=O)N[C@@H](Cc1ccccc1)C(=O)O` [Example 57, N-[3-({[(2-chlorophenyl)amino]carbonyl}amino)-2-naphthoyl]-L-phenylalanine] showed a 50% inhibitory concentration (IC50) under setting [1] of 5210 nM. Take `Cc1cc(C)c(NC(=O)Nc2cc3ccccc3cc2C(=O)N[C@H](CC(=O)O)c2ccccc2)c(C)c1` [Example 336, (3R)-3-phenyl-3-({[3-({[(2,4,6-trimethylphenyl)amino]carbonyl}amino)-2-naphthalenyl]carbonyl}amino)propanoic acid]: the IC50 under setting [2] was 610 nM. Take `Cc1ccccc1CC(=O)Nc1cc2ccccc2cc1C(=O)N[C@H](C(=O)O)C1CCCCC1` [Example 7, (2S)-cyclohexyl{[(3-{[(2-methylphenyl)acetyl]amino}-2-naphthalenyl)carbonyl]amino}ethanoic acid]: under setting [1], it took 17000 nM to reach half-maximal inhibition (IC50). Molecule `Cc1cc(C)c(NC(=O)Nc2cc(F)ccc2C(=O)NC2(C(=O)O)CCCCCC2)c(C)c1` [Example 221, 1-({[4-Fluoro-2-({[(2,4,6-trimethylphenyl)amino]carbonyl}amino)phenyl]carbonyl}amino)cycloheptane-carboxylic acid] returned an IC50 under setting [2] of 300 nM. As for `O=C(Nc1sc(Cc2ccccc2)cc1C(=O)O)Nc1c(Cl)cccc1Cl` [Example 397, 2-({[(2,6-dichlorophenyl)amino]carbonyl}amino)-5-(phenylmethyl)-3-thiophenecarboxylic acid], the half-inhibitory concentration (IC50) under setting [1] is 14300 nM.

As to `Cc1cccc(C)c1NC(=O)Nc1cc2ccccc2cc1C(=O)NCC(=O)O` [Example 11, N-[3-({[(2,6-dimethylphenyl)amino]carbonyl}amino)-2-naphthoyl]glycine], under setting [1], half-maximal inhibition (IC50) required 90 nM. Under setting [2], `Cc1cc(C)c(NC(=O)Nc2cc(-c3ccccc3)cnc2C(=O)N[C@H](C(=O)O)C2CCCCC2)c(C)c1` [Example 321, (2S)-Cyclohexyl({[5-phenyl-3-({[(2,4,6-trimethylphenyl)amino]carbonyl}amino)-2-pyridinyl]carbonyl}amino)ethanoic acid] had an IC50 of 150 nM. Still for that read-out and setting: the same measure for `Cc1cc(C)c(NC(=O)Nc2cc3ccccc3cc2C(=O)NC2(C(=O)O)CCOCC2)c(C)c1` [Example 282, 4-({[3-({[(2,4,6-Trimethylphenyl)amino]carbonyl}amino)-2-naphthalenyl]carbonyl}amino)tetrahydro-2H-pyran-4-carboxylic acid]: 1150 nM; for `Cc1cc(C)c(NC(=O)Nc2cc(-c3cccc(F)c3)ccc2C(=O)N[C@H](C(=O)O)C2CCCCC2)c(C)c1` [Example 234, (2S)-Cyclohexyl({[3′-fluoro-3-({[(2,4,6-trimethylphenyl)amino]carbonyl}amino)-4-biphenylyl]carbonyl}amino)ethanoic acid]: 24 nM. Molecule `Cc1cccc(C)c1NC(=O)Nc1cc(F)ccc1C(=O)N[C@H](C(=O)O)C1CCCCC1` [Example 190, (2S)-Cyclohexyl({[2-({[(2,6-dimethylphenyl)amino]carbonyl}amino)-4-fluorophenyl]carbonyl}amino)ethanoic acid] showed an IC50 under setting [1] of 700 nM. Still for that read-out and setting: then `O=C(Nc1sc(-c2cccnc2)cc1C(=O)N[C@H](C(=O)O)C1CCCCC1)Nc1c(Cl)cccc1Cl` [Example 415, (2S)-cyclohexyl({[2-({[(2,6-dichlorophenyl)amino]carbonyl}amino)-5-(3-pyridinyl)-3-thienyl]carbonyl}amino)ethanoic acid], with 770 nM.

With `O=C(Nc1cc2ccccc2cc1C(=O)N1CCCC(C(=O)O)C1)Nc1c(Cl)cccc1Cl` (stereo not drawn) [Example 333, 1-{[3-({[(2,6-Dichlorophenyl)amino]carbonyl}amino)-2-naphthalenyl]carbonyl}-3-piperidinecarboxylic acid], the IC50 under setting [2] stood at 9270 nM. Still for that read-out and setting: then `Cc1cc(C)c(NC(=O)Nc2cc3ccccc3cc2C(=O)NC(C(=O)O)C2CCC(N3CCOCC3)CC2)c(C)c1` (mixture of isomers) [Example 348, (cis and trans)-[4-(4-morpholinyl)cyclohexyl]({[3-({[(2,4,6-trimethylphenyl)amino]carbonyl}amino)-2-naphthalenyl]carbonyl}amino)acetic acid], with 1860 nM. Under setting [1], `Cc1cc(C)c(NC(=O)Nc2cc(-c3ccc(F)c(F)c3)ccc2C(=O)N[C@@H](COCc2ccccc2)C(=O)O)c(C)c1` [Example 510, N-{[3′,4′-Difluoro-3-({[(2,4,6-trimethylphenyl)amino]carbonyl}amino)-4-biphenylyl]carbonyl}-O-(phenylmethyl)-L-serine] yielded an IC50 of 42 nM. The same measure, in the same setting: then `Cc1cccc(C)c1NC(=O)Nc1cc2ccccc2cc1C(=O)N[C@H](C(=O)O)[C@@H](C)O` [Example 22, N-[3-({[(2,6-dimethylphenyl)amino]carbonyl}amino)-2-naphthoyl]-L-threonine], with 1080 nM.

Under setting [2], `O=C(Nc1cc(-c2ccc(F)c(F)c2)ccc1C(=O)N[C@H](C(=O)O)C1CCCCC1)Nc1c(Cl)cc(OC(F)(F)F)cc1Cl` [Example 212, (2S)-Cyclohexyl{[(3-{[({2,6-dichloro-4-[(trifluoromethyl)oxy]phenyl}amino)carbonyl]amino}-3′,4′-difluoro-4-biphenylyl)carbonyl]amino}ethanoic acid] had an IC50 of 17 nM. On to `COc1ccc(-c2cc(NC(=O)Nc3c(C)cc(C)cc3C)c(C(=O)O)s2)cc1` [Example 438, 5-[4-(methyloxy)phenyl]-3-({[(2,4,6-trimethylphenyl)amino]carbonyl}amino)-2-thiophenecarboxylic acid], for which the half-inhibitory concentration (IC50) under setting [1] is 330 nM. The same measure, in the same setting: then `COc1ccc(-c2cc(NC(=O)Nc3c(C)cc(C)cc3C)c(C(=O)NC3(C(=O)O)CCCCCCC3)s2)cc1` [Example 454, 1-({[5-[4-(methyloxy)phenyl]-3-({[(2,4,6-trimethylphenyl)amino]carbonyl}amino)-2-thienyl]carbonyl}amino)cyclooctanecarboxylic acid], with 1 nM.
